≈ marks a conversion by molar mass, not a printed value. Calls of active or inactive are those of the source. No cut-off for these calls is given here.
Key:
[1] = target: T1, NAD-dependent protein deacylase sirtuin-6 (Homo sapiens, UniProt Q8N6T7); assay: Inhibition of human recombinant SIRT6 assessed as reduction in NAD+-dependent deacetylase activity at 200 uM using Arg-His-Lys-Lys(epsilon-acetyl)-AMC substrate and NAD+ by fluorescence based assay
[2] = species on record: Homo sapiens; assay: Selectivity index, ratio of IC50 for human recombinant SIRT1 to IC50 for human recombinant SIRT6
[3] = species on record: Homo sapiens; assay: Selectivity index, ratio of IC50 for human recombinant SIRT2 to IC50 for human recombinant SIRT6
[4] = target: T1, NAD-dependent protein deacylase sirtuin-6; assay: Inhibition of SIRT6 in human BxPC3 cells assessed as increase in H3K9 acetylation by immunoblotting relative to untreated control; type: cell-based; design: concentration or dose not given beside the values
[5] = target: T1, NAD-dependent protein deacylase sirtuin-6; assay: Inhibition of SIRT6 in human BxPC3 cells assessed as increase in 2-NBDG uptake at 100 uM incubated for 18 hrs by glucose uptake assay; type: cell-based
[6] = target: T1, NAD-dependent protein deacylase sirtuin-6; assay: Inhibition of SIRT6 in human BxPC3 cells assessed as reduction in TNFalpha production at 100 uM incubated for 18 hrs by ELISA method; type: cell-based
[7] = target: T2, NAD-dependent protein deacetylase sirtuin-1 (Homo sapiens, UniProt Q96EB6); assay: Inhibition of human recombinant SIRT1 assessed as reduction in NAD+-dependent deacetylase activity using Arg-His-Lys-Lys(epsilon-acetyl)-AMC substrate and NAD+ by fluorescence based assay
T2 sequence (Q96EB6 whole entry): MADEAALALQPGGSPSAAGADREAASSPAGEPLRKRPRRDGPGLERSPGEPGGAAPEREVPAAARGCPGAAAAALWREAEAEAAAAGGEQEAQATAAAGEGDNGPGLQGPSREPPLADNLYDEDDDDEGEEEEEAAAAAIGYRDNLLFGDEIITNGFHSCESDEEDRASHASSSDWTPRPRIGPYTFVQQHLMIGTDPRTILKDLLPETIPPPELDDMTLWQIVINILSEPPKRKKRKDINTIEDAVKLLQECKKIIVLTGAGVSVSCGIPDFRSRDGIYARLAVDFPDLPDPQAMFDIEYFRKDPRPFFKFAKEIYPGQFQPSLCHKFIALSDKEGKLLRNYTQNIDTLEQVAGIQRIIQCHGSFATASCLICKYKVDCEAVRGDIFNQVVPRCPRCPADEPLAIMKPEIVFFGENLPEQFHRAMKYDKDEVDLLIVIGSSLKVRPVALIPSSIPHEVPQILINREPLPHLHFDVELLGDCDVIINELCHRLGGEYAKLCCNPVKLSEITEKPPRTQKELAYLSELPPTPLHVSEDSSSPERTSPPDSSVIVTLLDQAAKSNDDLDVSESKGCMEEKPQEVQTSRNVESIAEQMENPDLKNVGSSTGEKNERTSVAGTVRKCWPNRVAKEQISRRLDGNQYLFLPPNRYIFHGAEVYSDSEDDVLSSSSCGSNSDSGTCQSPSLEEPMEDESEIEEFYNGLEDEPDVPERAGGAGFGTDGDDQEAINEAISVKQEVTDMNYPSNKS

[8] = target: T3, NAD-dependent protein deacetylase sirtuin-2 (Homo sapiens, UniProt Q8IXJ6); assay: Inhibition of human recombinant SIRT2 assessed as reduction in NAD+-dependent deacetylase activity using Arg-His-Lys-Lys(epsilon-acetyl)-AMC substrate and NAD+ by fluorescence based assay
T3 sequence (Q8IXJ6 whole entry): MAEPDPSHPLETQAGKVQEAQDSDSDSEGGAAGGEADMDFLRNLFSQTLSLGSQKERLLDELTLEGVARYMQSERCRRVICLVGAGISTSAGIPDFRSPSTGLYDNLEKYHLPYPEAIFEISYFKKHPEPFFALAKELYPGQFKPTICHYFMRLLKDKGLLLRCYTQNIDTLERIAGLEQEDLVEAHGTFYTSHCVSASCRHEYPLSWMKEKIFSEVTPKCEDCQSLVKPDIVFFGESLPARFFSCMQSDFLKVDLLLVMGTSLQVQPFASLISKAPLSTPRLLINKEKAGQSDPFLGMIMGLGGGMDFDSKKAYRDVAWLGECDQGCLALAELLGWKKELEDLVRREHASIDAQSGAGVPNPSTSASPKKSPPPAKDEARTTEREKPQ

[9] = target: T1, NAD-dependent protein deacylase sirtuin-6; assay: Competitive inhibition of human recombinant SIRT6 assessed as reduction in NAD+-dependent deacetylase activity at 50 uM using fixed Arg-His-Lys-Lys(epsilon-acetyl)-AMC substrate and varying NAD+ by fluorescence based assay based double-reciprocal plot
[10] = target: T1, NAD-dependent protein deacylase sirtuin-6; assay: Competitive inhibition of human recombinant SIRT6 assessed as reduction in NAD+-dependent deacetylase activity at 50 uM using varying Arg-His-Lys-Lys(epsilon-acetyl)-AMC substrate and fixed NAD+ by fluorescence based assay based double-reciprocal plot
[11] = target: T1, NAD-dependent protein deacylase sirtuin-6; assay: Inhibition of SIRT6 in human PBMC cells assessed as increase in H3K9 acetylation at 200 uM incubated for 24 hrs by immunoblotting relative to untreated control; type: cell-based
[12] = target: T1, NAD-dependent protein deacylase sirtuin-6; assay: Inhibition of SIRT6 in human PBMC cells assessed as increase in H3K56 acetylation at 200 uM incubated for 24 hrs by immunoblotting relative to untreated control; type: cell-based
[13] = target: T1, NAD-dependent protein deacylase sirtuin-6; assay: Inhibition of SIRT6 in human PBMC cells assessed as reduction in staphylococcal enterotoxin B-induced cell proliferation at 200 uM incubated for 120 hrs by ATPlite assay; type: cell-based
[14] = target: T1, NAD-dependent protein deacylase sirtuin-6; assay: Inhibition of SIRT6 in human PBMC cells assessed as reduction in PHA-induced cell proliferation at 200 uM incubated for 120 hrs by ATPlite assay; type: cell-based
[15] = target: T1, NAD-dependent protein deacylase sirtuin-6; assay: Inhibition of SIRT6 in human PBMC cells assessed as reduction in staphylococcal enterotoxin B-induced cell proliferation by measuring CFSE signal level at 200 uM incubated for 120 hrs by CFSE staining based flow FACS assay (reference value: 65%); design: scale not given: the % may be the effect or the level left
[16] = target: T1, NAD-dependent protein deacylase sirtuin-6; assay: Inhibition of SIRT6 in human PBMC cells assessed as reduction in PHA-induced cell proliferation by measuring CFSE signal level at 200 uM incubated for 120 hrs by CFSE staining based flow FACS assay (reference value: 66%); design: scale not given: the % may be the effect or the level left
[17] = target: T1, NAD-dependent protein deacylase sirtuin-6; assay: Inhibition of SIRT6 in human BxPC3 cells assessed as potentiation of gemcitabine-induced cytotoxicity at 30 uM incubated for 72 hrs by Cell-titer96 aqueous one assay; type: cell-based
[18] = system: BXPC-3; assay: Toxicity in human BxPC3 cells assessed as reduction in cell viability at 30 uM incubated for 72 hrs by Cell-titer96 aqueous one assay; type: cell-based; conditions: bxpc-3, 72 h
[19] = target: T1, NAD-dependent protein deacylase sirtuin-6; assay: Inhibition of human recombinant SIRT6 assessed as reduction in NAD+-dependent deacetylase activity using Arg-His-Lys-Lys(epsilon-acetyl)-AMC substrate and NAD+ by fluorescence based assay
[20] = Ionisation constant, pKa of the compound; type: physicochemical
[21] = Partition coefficient, log P of the compound; type: physicochemical; conditions: octanol/water
[22] = Intrinsic aqueous solubility in surfactant in 9% TPGS; type: physicochemical; conditions: 9% TPGS surfactant solution
[23] = Intrinsic aqueous solubility in all polymers solutions; type: physicochemical
[24] = Intrinsic aqueous solubility in 23% Kleptose HPB; type: physicochemical
[25] = Intrinsic aqueous solubility in PBS at pH 7.4; type: physicochemical
[26] = Fraction unbound in human plasma at 1 ug/ml by rapid equilibrium dialysis; type: ADME, cell-free
[27] = Fraction unbound in human plasma at 10 ug/ml by rapid equilibrium dialysis; type: ADME, cell-free
[28] = Fraction unbound in mouse plasma at 1 ug/ml by rapid equilibrium dialysis; type: ADME, cell-free
[29] = Fraction unbound in mouse plasma at 10 ug/ml by rapid equilibrium dialysis; type: ADME, cell-free
[30] = Stability in mouse plasma assessed as half life at 1 uM at 37 degC measured after 4 hrs; type: ADME, cell-free

T1 sequence (Q8N6T7 whole entry): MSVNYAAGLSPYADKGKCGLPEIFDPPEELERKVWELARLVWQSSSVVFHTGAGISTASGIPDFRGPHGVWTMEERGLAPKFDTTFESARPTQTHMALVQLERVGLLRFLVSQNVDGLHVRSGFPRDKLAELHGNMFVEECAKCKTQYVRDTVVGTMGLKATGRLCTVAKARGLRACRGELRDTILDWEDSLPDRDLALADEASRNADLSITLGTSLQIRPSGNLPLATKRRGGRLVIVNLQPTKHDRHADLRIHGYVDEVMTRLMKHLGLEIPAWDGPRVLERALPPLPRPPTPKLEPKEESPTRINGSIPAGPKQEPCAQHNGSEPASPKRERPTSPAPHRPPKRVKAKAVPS

Q: Which inhibition [1] does the source give for O=C(Nc1ccc(C(=O)O)c(O)c1)c1ccc(N2C(=O)c3ccccc3C2=O)cc1 here?
A: Its inhibition is 17%.

Q: With Cc1c(NC(=O)c2cccc(NC(=O)c3ccco3)c2)cccc1C(=O)O as the compound, how does the inhibition [1] read?
A: Its inhibition is 18%.

Q: With O=C(Nc1ccc(C(=O)O)c(O)c1)c1ccc(N2C(=O)CCS2(=O)=O)cc1 as the compound, how does the inhibition [1] read?
A: The inhibition was 100%.

Q: For O=C(Nc1ccc(O)c(C(=O)O)c1)c1cccc(NC(=O)c2ccco2)c1, which Ratio IC50 [2] is on record?
A: Its Ratio IC50 is 17.7.

Q: What about the Ratio IC50 [3] of the same compound?
A: Its Ratio IC50 is 8.44.

Q: What about the fold change (FC) [4] of the same compound?
A: The fold change (FC) was 2.1.

Q: And the fold change (FC) [5]?
A: The fold change (FC) was 1.3.

Q: What about the inhibition [6] of the same compound?
A: The inhibition was 52%.

Q: Which inhibition [1] does the source give for O=C(Nc1ccc(C(=O)O)c(O)c1)c1ccc(NC(=O)c2ccco2)cc1 here?
A: The inhibition was 100%.

Q: What about the IC50 [7] of the same compound?
A: The IC50 was 599 µM.

Q: What about the IC50 [8] of the same compound?
A: Its IC50 is 482 µM.

Q: What about the inhibition [9] of the same compound?
A: Its inhibition is “Active”.

Q: And the inhibition [10]?
A: Its inhibition is “Active”.

Q: And the fold change (FC) [4]?
A: Its fold change (FC) is 2.5.

Q: What about the fold change (FC) [5] of the same compound?
A: Its fold change (FC) is 1.7.

Q: What about the inhibition [6] of the same compound?
A: The inhibition was 80%.

Q: And the inhibition [11]?
A: Its inhibition is “Active”.

Q: And the inhibition [12]?
A: The inhibition was “Active”.

Q: And the inhibition [13]?
A: Its inhibition is “Active”.

Q: What about the inhibition [14] of the same compound?
A: The inhibition was “Active”.

Q: And the Activity [15]?
A: Its Activity is 27%.

Q: And the Activity [16]?
A: The Activity was 29%.

Q: What about the inhibition [17] of the same compound?
A: The inhibition was “Active”.

Q: What about the Activity [18] of the same compound?
A: The Activity was “Non-Toxic”.

Q: With Cc1ccc(C(=O)O)cc1NC(=O)c1cccc(NC(=O)c2ccco2)c1 as the compound, how does the inhibition [1] read?
A: The inhibition was 4%.

Q: For O=C(Nc1ccc(O)cc1C(=O)O)c1ccc(N2C(=O)c3ccccc3C2=O)cc1, which inhibition [1] is on record?
A: The inhibition was 100%.

Q: And the IC50 [19]?
A: The IC50 was 20 µM.

Q: And the IC50 [7]?
A: The IC50 was 424 µM.

Q: What about the IC50 [8] of the same compound?
A: The IC50 was 333 µM.

Q: And the Ratio IC50 [2]?
A: Its Ratio IC50 is 21.2.

Q: What about the Ratio IC50 [3] of the same compound?
A: Its Ratio IC50 is 16.6.

Q: What about the fold change (FC) [4] of the same compound?
A: Its fold change (FC) is 0.9.

Q: What about the fold change (FC) [5] of the same compound?
A: The fold change (FC) was 1.1.

Q: What about the inhibition [6] of the same compound?
A: Its inhibition is 13%.

Q: And the pKa [20]?
A: The pKa was 3.22.

Q: What about the logP [21] of the same compound?
A: The logP was 3.6.

Q: What about the solubility [22] of the same compound?
A: The solubility was 50 µg/mL (≈ 124 µM).

Q: And the solubility [23]?
A: The solubility was 5 µg/mL (≈ 12.4 µM).

Q: And the solubility [24]?
A: Its solubility is 50 µg/mL (≈ 124 µM).

Q: What about the solubility [25] of the same compound?
A: The solubility was 70 µg/mL (≈ 174 µM).

Q: What about the fraction unbound at 1 ug/ml [26] of the same compound?
A: Its fraction unbound at 1 ug/ml is under 0.001.

Q: What about the fraction unbound at 10 ug/ml [27] of the same compound?
A: The fraction unbound at 10 ug/ml was under 0.001.

Q: And the fraction unbound at 1 ug/ml [28]?
A: Its fraction unbound at 1 ug/ml is under 0.01.

Q: What about the fraction unbound at 10 ug/ml [29] of the same compound?
A: Its fraction unbound at 10 ug/ml is under 0.01.

Q: What about the half-life at 1 µM [30] of the same compound?
A: Its half-life at 1 µM is 7.7 h.

Q: For CC(=O)Nc1ccc(NS(=O)(=O)c2ccc(O)c(C(=O)O)c2)cc1, which inhibition [1] is on record?
A: The inhibition was “inactive”.

Q: Which inhibition [1] does the source give for O=C(O)c1cccc(NC(=O)c2cccc(NC(=O)c3cccs3)c2)c1 here?
A: The inhibition was 39%.

Q: For O=C(Nc1ccc(O)c(C(=O)O)c1)c1ccc(N2C(=O)CCS2(=O)=O)cc1, which inhibition [1] is on record?
A: Its inhibition is 89%.

Q: With O=C(O)c1cccc(NC(=O)c2cccc(NC(=O)C3CCCO3)c2)c1 (stereo not given) as the compound, how does the inhibition [1] read?
A: The inhibition was “inactive”.

Q: Which inhibition [1] does the source give for O=C(Nc1ccc(O)c(C(=O)O)c1)c1cccc(N2C(=O)CCS2(=O)=O)c1 here?
A: The inhibition was 54%.
